The text below walks through data of EP0115400A1, “Triazole antifungal agents” (Pfizer Limited, priority 1983, dated 1984).

In one assay the test system is Candida albicans. The assay can be described thus: in vivo oral protection of mice inoculated with a lethal infection of Candida albicans. The conditions noted are these: oral administration to mice with lethal Candida albicans infection; survival of treated group after death of untreated group, 48 hours observation. Here is the method:
The in vivo evaluation of the compounds can be carried out at a series of dose levels by intraperitoneal or intravenous injection or by oral administration, to mice which are inoculated with a strain of Candida albicans. Activity is based on the survival of a treated group of mice after the death of an untreated group of mice following 48 hours observation. The dose level at which the compound provides 50X protection against the lethal effect of the infection is noted.
The compounds of the Examples were tested in vivo by oral administration to mice inoculated with a lethal infection of Candida albicans according to the procedures described herein. The dose levels providing 50% protection (PD50) were as follows: […]
Regarding `Cn1ncnc1CC(O)(Cn1cncn1)c1ccc(Cl)cc1Cl` (stereo not drawn) [Example 3 (2), 2-(2,4-Dichlorophenyl)-1-(2-methyl-1,2,4-triazol-3-yl)-3-(1H-1-2,4-triazol-1-yl)propan-2-ol], the “PD50 (dose level providing 50% protection)” value turned out to be 20 mg/kg/p.o.

Consider `Cn1cnnc1CC(O)(Cn1cncn1)c1ccc(Cl)cc1Cl` (stereo not drawn) [Example 3 (3), 2-(2,4-Dichlorophenyl)-1-(4-methyl-1,2,4-triazol-3-yl)-3-(1H-1,2,4-triazol-l-yl)propan-2-ol], for which the “PD50 (dose level providing 50% protection)” value stood at 3.5 mg/kg/p.o.

The assay is the same for the next values; noted with them: oral administration to mice with lethal Candida albicans infection; survival of treated group after death of untreated group, 48 hours observation; read-out: PD50 (dose level providing 50% protection).
In the case of `Cn1ccnc1CC(O)(Cn1cncn1)c1ccc(Cl)cc1Cl` (stereo not drawn) [Example 5, 2-(2,4-Dichlorophenyl)-1-(1-methylimidazol-2-yl)-3-(1H-1,2,4-triazol-1-yl)propan-2-ol dimesylate], the ED50 was found to be 1 mg/kg.

For the compound `OC(Cc1ncn[nH]1)(Cn1cncn1)c1ccc(Cl)cc1Cl` (stereo not drawn) [Example 2, 2-(2,4-Dichlorophenyl)-1-(1,2,4-triazol-3-yl)-3-(1H-1,2,4-triazol-1-yl)propan-2-ol, dioxalate], the ED50 was found to be 2.2 mg/kg.

Turning to `OC(Cc1ncc[nH]1)(Cn1cncn1)c1ccc(Cl)cc1Cl` (stereo not drawn) [Example 4, 2-(2,4-Dichlorophenyl)-1-(imidazol-2-yl)-3-(1H-1,2,4-triazol-1-yl)propan-2-ol], the ED50 amounted to 1.2 mg/kg.

Turning to `Cn1nnnc1CC(O)(Cn1cncn1)c1ccc(Cl)cc1Cl` (stereo not drawn) [Example 1, 2-(2,4-Dichlorophenyl)-1-(1-methyltetrazol-5-yl)-3-(lH-1,2,4-triazol-l-yl)propan-2-ol], the ED50 came to 0.1 mg/kg.
